In the assay the test system is 171881-019-R-J1-PDC complex spheroid viability. Description: Anticancer human tumor 171881-019-R-J1-PDC patient-derived invasive breast carcinoma cell line growth inhibition. To be noted: for viability, T/C: stronger effect = lower value. The gist of the method:
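Multicellular complex spheroids of tumor cells with human endothelial cells (HUVEC) and mesenchymal stem cells; the LSD1 inhibitor iadademstat was combined with standard-of-care or investigational agents. Top concentration at or near clinical Cmax, half-log dilutions; final DMSO ≤0.25%.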

[1] abbreviates: curve of first compound, second compound 0.1 µM.
Where [2] appears, read: curve of first compound, second compound 0.316 µM.
The mark [3] stands for this setting: curve of first compound, second compound 1 µM.
Where [4] appears, read: curve of first compound, second compound 3.16 µM.
The mark [5] stands for this setting: curve of first compound, second compound 10 µM.
Where [6] appears, read: second compound 0.1 µM, first compound 0.0316 µM.
The mark [7] stands for this setting: second compound 0.1 µM, first compound 0.1 µM.
Setting [8] is: second compound 0.316 µM, first compound 0.0316 µM.
Where [9] appears, read: second compound 0.316 µM, first compound 0.1 µM.
Setting [10] is: second compound 1 µM, first compound 0.0316 µM.
[11] abbreviates: second compound 1 µM, first compound 0.1 µM.
Setting [12] is: second compound 3.16 µM, first compound 0.0316 µM.
Setting [13] is: second compound 3.16 µM, first compound 0.1 µM.
The mark [14] stands for this setting: second compound 10 µM, first compound 0.0316 µM.
The mark [15] stands for this setting: second compound 10 µM, first compound 0.1 µM.

pIC50: −log10 of the molar value. “And” between values parts separate entries of the source, which are not always exact repeats. Identical values can stand only once. Some results are limits rather than exact numbers.

The record followed here is PubChem BioAssay AID1918932 (Molecular Pharmacology Branch, DTP, NCI, 2023).
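Further: spheroids exposed to agents for 7 days after 3 days growth.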

As usually defined, the pIC50 is the IC50 on a negative log10 scale, so that one unit is a factor of ten. In general, viability, T/C refers to the result in the treated group divided by that in the control group, in per cent. In the case of `CC(C)CC(NC(=O)C(Cc1ccccc1)NC(=O)c1cnccn1)B(O)O` (stereo unspecified) + NC1CC1c1ccc(-c2cccc(O)c2)cc1, the pIC50 is above 9.50 under setting [1]; above 9.50 under setting [2]; above 9.50 under setting [3]; above 9.50 under setting [4]; above 9.50 under setting [5]. Moreover, the viability, T/C by setting is: (second compound 0.1 µM, first compound 0.000316 µM) 22.8%; (second compound 0.1 µM, first compound 0.001 µM) 21.4%; (second compound 0.1 µM, first compound 0.00316 µM) 16.4%; (second compound 0.1 µM, first compound 0.01 µM) 10.8%; under setting [6], 9.75%; under setting [7], 13.1%. Besides, the viability, T/C was 24.2% (second compound 0.316 µM, first compound 0.000316 µM); 8.57% (second compound 0.316 µM, first compound 0.001 µM); 10.7% (second compound 0.316 µM, first compound 0.00316 µM); 11% (second compound 0.316 µM, first compound 0.01 µM); 13.4% under setting [8]; 9.51% under setting [9]. For the same compound, the viability, T/C was 23.8% (second compound 1 µM, first compound 0.000316 µM); 18.2% (second compound 1 µM, first compound 0.001 µM); 6.24% (second compound 1 µM, first compound 0.00316 µM); 7.73% (second compound 1 µM, first compound 0.01 µM); 7.79% under setting [10]; 7.59% under setting [11]. In addition, the viability, T/C is 3.29% (second compound 3.16 µM, first compound 0.000316 µM); 4.7% (second compound 3.16 µM, first compound 0.001 µM); 3.45% (second compound 3.16 µM, first compound 0.00316 µM); 8.88% (second compound 3.16 µM, first compound 0.01 µM); 6.7% under setting [12]; 5.34% under setting [13]. The viability, T/C is, setting by setting: (second compound 10 µM, first compound 0.000316 µM) 5.61%; (second compound 10 µM, first compound 0.001 µM) 8.2%; (second compound 10 µM, first compound 0.00316 µM) 0.52%; (second compound 10 µM, first compound 0.01 µM) 3.61%; under setting [14], 8.57%; under setting [15], 1.8%.

For the compound `COc1cc(Nc2ncc3c(n2)-c2ccc(Cl)cc2C(c2c(F)cccc2OC)=NC3)ccc1C(=O)O`, the viability, T/C (compound 0.00316 µM) was 91.6% and 57%; the viability, T/C (compound 0.01 µM) was 85.9% and 64.4%; the viability, T/C (compound 0.0316 µM) was 84.5% and 63.2%; the viability, T/C (compound 0.1 µM) was 89% and 58.9%; the viability, T/C (compound 0.316 µM) was 80.6% and 54.1%; the viability, T/C (compound 1 µM) was 51.5% and 30.1%. Besides, the pIC50 (curve of compound) is < 6.00 and 6.42.

Regarding `CC[C@@]1(O)C(=O)OCc2c1cc1n(c2=O)Cc2cc3c(CN(C)C)c(O)ccc3nc2-1`, the viability, T/C was 90.9% and 99.1% (compound 0.000316 µM); 116% and 105% (compound 0.001 µM); 129% and 84.4% (compound 0.00316 µM); 64.3% and 70.4% (compound 0.01 µM); 67.5% and 66% (compound 0.0316 µM); 46.6% and 37.6% (compound 0.1 µM). The negative-log IC50 (pIC50) (curve of compound) was < 7.00 and 7.26.

Turning to `Nc1ncn(C2CC(O)C(CO)O2)c(=O)n1` (stereo unspecified), the viability, T/C (compound 0.00316 µM) is 109% and 97.4%; the viability, T/C (compound 0.01 µM) was 122% and 97.5%; the viability, T/C (compound 0.0316 µM) was 128% and 95.1%; the viability, T/C (compound 0.1 µM) is 130% and 93.4%; the viability, T/C (compound 0.316 µM) was 120% and 91.2%; the viability, T/C (compound 1 µM) is 105% and 81.2%. Under “curve of compound”, the negative-log IC50 (pIC50) is below 6.00.

With `Nc1ccn(C2OC(CO)C(O)C2(F)F)c(=O)n1` (stereo unspecified) + NC1CCC(NC2CC2c2ccccc2)CC1, the pIC50 is below 6.52 under setting [1]; below 6.52 under setting [2]; below 6.52 under setting [3]; below 6.52 under setting [4]; below 6.52 under setting [5]. Besides, the viability, T/C is 77.4% (second compound 0.1 µM, first compound 0.000949 µM); 53.8% (second compound 0.1 µM, first compound 0.003 µM); 56.2% (second compound 0.1 µM, first compound 0.00949 µM); 59.2% (second compound 0.1 µM, first compound 0.03 µM); 57.8% (second compound 0.1 µM, first compound 0.0949 µM); 55.6% (second compound 0.1 µM, first compound 0.3 µM). Besides, the viability, T/C reads like this: (second compound 0.316 µM, first compound 0.000949 µM) 77.7%; (second compound 0.316 µM, first compound 0.003 µM) 54.9%; (second compound 0.316 µM, first compound 0.00949 µM) 54.6%; (second compound 0.316 µM, first compound 0.03 µM) 58.6%; (second compound 0.316 µM, first compound 0.0949 µM) 56.4%; (second compound 0.316 µM, first compound 0.3 µM) 54.3%. Further, the viability, T/C (second compound 1 µM, first compound 0.000949 µM) was 85.6%; the viability, T/C (second compound 1 µM, first compound 0.003 µM) was 56.5%; the viability, T/C (second compound 1 µM, first compound 0.00949 µM) was 57.8%; the viability, T/C (second compound 1 µM, first compound 0.03 µM) was 60.4%; the viability, T/C (second compound 1 µM, first compound 0.0949 µM) is 58%; the viability, T/C (second compound 1 µM, first compound 0.3 µM) is 54.7%. For the same compound, the viability, T/C was 84.8% (second compound 3.16 µM, first compound 0.000949 µM); 56% (second compound 3.16 µM, first compound 0.003 µM); 60.8% (second compound 3.16 µM, first compound 0.00949 µM); 63.4% (second compound 3.16 µM, first compound 0.03 µM); 60.1% (second compound 3.16 µM, first compound 0.0949 µM); 54.7% (second compound 3.16 µM, first compound 0.3 µM). Besides, the viability, T/C was 90.5% (second compound 10 µM, first compound 0.000949 µM); 62.5% (second compound 10 µM, first compound 0.003 µM); 64% (second compound 10 µM, first compound 0.00949 µM); 70% (second compound 10 µM, first compound 0.03 µM); 68.5% (second compound 10 µM, first compound 0.0949 µM); 64.1% (second compound 10 µM, first compound 0.3 µM).

For `CC(C)c1c(-c2ccccc2)nc2c(C#N)c[nH]n2c1=O` + NC1CC1c1ccc(-c2cccc(O)c2)cc1, the pIC50 was 5.30 under setting [1]; 5.27 under setting [2]; 5.27 under setting [3]; 5.26 under setting [4]; 5.31 under setting [5]. For the same compound, the viability, T/C by setting is: under setting [6], 104%; under setting [7], 103%; (second compound 0.1 µM, first compound 0.316 µM) 93%; (second compound 0.1 µM, first compound 1 µM) 87.3%; (second compound 0.1 µM, first compound 3.16 µM) 72.1%; (second compound 0.1 µM, first compound 10 µM) 19.8%. The viability, T/C is 102% under setting [8]; 102% under setting [9]; 95.8% (second compound 0.316 µM, first compound 0.316 µM); 90.4% (second compound 0.316 µM, first compound 1 µM); 75.5% (second compound 0.316 µM, first compound 3.16 µM); 22.1% (second compound 0.316 µM, first compound 10 µM). Moreover, the viability, T/C is, setting by setting: under setting [10], 108%; under setting [11], 101%; (second compound 1 µM, first compound 0.316 µM) 93.9%; (second compound 1 µM, first compound 1 µM) 89.5%; (second compound 1 µM, first compound 3.16 µM) 75.7%; (second compound 1 µM, first compound 10 µM) 22.5%. Also, the viability, T/C reads like this: under setting [12], 103%; under setting [13], 98.6%; (second compound 3.16 µM, first compound 0.316 µM) 97%; (second compound 3.16 µM, first compound 1 µM) 87.4%; (second compound 3.16 µM, first compound 3.16 µM) 77.1%; (second compound 3.16 µM, first compound 10 µM) 22%. In addition, the viability, T/C is, setting by setting: under setting [14], 85.7%; under setting [15], 81.9%; (second compound 10 µM, first compound 0.316 µM) 81.4%; (second compound 10 µM, first compound 1 µM) 80.5%; (second compound 10 µM, first compound 3.16 µM) 70.6%; (second compound 10 µM, first compound 10 µM) 18.1%.
